Laboratory results reported in patent publication US6011041A, “Use of anhydrovinblastine” (priority 1996, dated 2000).
Counter-ions that a name gives are not always drawn.

System: Nb2-U17 lymphoma
Assay: Nb2-U17 lymphoma transplant efficacy in Nb rats (FIGS. 2-3)
Format: in vivo, rat
Conditions: for anti-tumour effect at 50% of maximum tolerated dose, relative potency: half subacutely toxic dose, single i.p. (AHVB 1.5, navelbine 1.0, vincristine 0.35 mg/kg); for time to regression of tumours to essential non-palpability: single i.p. subacutely toxic dose (AHVB 3.0, navelbine 2.0, vincristine 0.7 mg/kg); for recurrence of tumours after day 10 / time after which most of the lost animal weight was regained: single i.p. subacutely toxic dose, Nb2-U17 rats
Text: The U17 cell line was originally derived from a transplantable malignant lymphoma that arose spontaneously in male Noble rats (British Columbia Cancer Research center Joint Animal Breeding Facility with parents obtained from the National Institutes of Health, Bethesda, Md.). The cell line is prolactin dependent and can readily be cultured in vitro. U17 derived solid tumours are generated by subcutaneous injection (via the trocar method) of a small (2 mm^2) piece of tumour tissue obtained from male Noble rat. Tumour tissue used for the implants arose two weeks after injection of 5×10^6 U17 cells (from culture) subcutaneously in the nape of the neck. For assessing the anti-tumour activity of AHVB, tumour bearing animals (2-4 gm tumours) were given a single treatment of drug and tumour size was measured as a function of time following treatment. The anti-tumour activity was assessed at a series of different doses in order to determine the maximum therapeutic dose of AHVB. Comparative studies between vincristine, vinblastine and AHVB were performed.
Cultures of the non-metastatic, pre-T Nb2 lymphoma line originally developed at The University of British Columbia and designated Nb2-U17 (Anticancer Research 14:2485-2492, 1994), and are available from the British Columbia Cancer Research Center. Cells from exponentially growing Nb2-U17 suspension cultures were injected subcutaneously into methoxyflurane-anesthetized, mature male Nb rats (5 rats; 310-380 grams; 5×10^6 cells/rat in 1 ml of culture medium) at the nape of the neck using a 1.5" 20-gauge needle. At about 3 weeks, when the tumours reached a size of 4-7 cm (length+width), the animals were sacrificed and the tumours used for transplantation as described below.
A tumour from a rat was excised, minced and the tumour tissue was put into trocars (2", 13 gauge). The tissue samples were implanted subcutaneously in the nape of the neck of methoxyflurane-anesthetized male Nb rats (248-404 grams; 1 trocar per rat). This procedure was repeated 5 times to get a total of 60 tumour-bearing rats to be used for efficacy studies of the 3 drugs.
When the tumours were well established (1.5-2 weeks later), three separate groups of 20 rats, as closely matched as possible in terms of both tumour weight and rat weight, were selected for administration of the three test articles (i.e. one group for each test article).
Vincristine was administered to rats weighing 281-384 grams, bearing tumours weighing 6.3-16.3 grams. Navelbine was administered to rats weighing 274-389 grams bearing tumours weighing 9.1-23.3 grams. AHVB was administered to rats weighing 303-400 grams, bearing tumours weighing 7.9-25.9 grams. Tumour weights were estimated using the hemi-ellipsoid model (weight in grams=[…] in cm).
The oncolytic effects of each of the three drugs were assessed at a subacutely toxic dose, determined for each drug in preliminary studies using non-tumour-bearing, mature male Nb rats, i.e. 3.0, 2.0 and 0.7 mg/kg for […], navelbine and vincristine, respectively as illustrated in FIG. 2. In addition, each drug was assessed at 50% and 25% of its subacutely toxic dose. Five tumour-bearing rats were used to evaluate the effect at each dose level. The drugs were administered intraperitoneally as a single bolus in a volume of 0.19-0.31 ml, as indicated by the weight of the animals. To this end, drug preparations were diluted to appropriate concentrations using sparged saline adjusted with acetic acid to pH 4.2. For each drug, a group of 5 control rats received an intraperitoneal injection of the equivalent amount of saline (pH 4.2). The tumour-bearing rats were organized in the following groups:
Following administration of the test articles, the animals; weight and tumour size (using calipers) were determined daily until the tumour reached an estimated weight of 35 grams, or started to ulcerate, at which times the animals were sacrificed (by carbondioxide inhalation) and subjected to necropsy. […]

| SMILES | anti-tumour effect at 50% of maximum tolerated dose, relative potency | time to regression of tumours to essential non-palpability [days] | recurrence of tumours after day 10 | time after which most of the lost animal weight was regained |
| --- | --- | --- | --- | --- |
| CCC1=CC2CN(CCc3c([nH]c4ccccc34)C(C(=O)OC)(c3cc4c(cc3OC)N(C)C3C(O)(C(=O)OC)C(OC(C)=O)C5(CC)C=CCN6CCC43C65)C2)C1 (centres unmarked) [AHVB, 3',4'-anhydrovinblastine] | less potent than vincristine | ≤ 5 | occurred to about the same extent | about 17 days |
| CCC1=C[C@@H]2CN(C1)Cc1c([nH]c3ccccc13)[C@@](C(=O)OC)(c1cc3c(cc1OC)N(C)[C@H]1[C@@](O)(C(=O)OC)[C@H](OC(C)=O)[C@]4(CC)C=CCN5CC[C@]31[C@@H]54)C2 [navelbine, 3',4'-didehydro-4'-deoxy-C'-norvincaleukoblastine-di-L-tartrate] | less potent than AHVB | ≤ 5 | occurred to about the same extent | about 17 days |
| CC[C@]1(O)C[C@H]2CN(CCc3c([nH]c4ccccc34)[C@@](C(=O)OC)(c3cc4c(cc3OC)N(C=O)[C@H]3[C@@](O)(C(=O)OC)[C@H](OC(C)=O)[C@]5(CC)C=CCN6CC[C@]43[C@@H]65)C2)C1 [vincristine, Sulfate of 22-oxovincaleukoblastine] | – | ≤ 5 | recurrence of tumours was not observed | about 17 days |
